Experimental data published in PubChem BioAssay (NCI).
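GI50 = concentration required for 50% inhibition of growth. TGI is the concentration that stops growth completely.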

What was measured:
Experiment in all cases: inhibition of tumour cell growth, NCI panel, 384-well format
NCI-H522 lung = tested on: NCI-H522 lung
MCF7 breast = tested on: MCF7 breast
PC-3 prostate = tested on: PC-3 prostate
SK-MEL-28 melanoma = tested on: SK-MEL-28 melanoma
KM12 colon = tested on: KM12 colon
SF-295 CNS = tested on: SF-295 CNS
LOX IMVI melanoma = tested on: LOX IMVI melanoma
RXF 393 renal = tested on: RXF 393 renal
NCI/ADR-RES ovarian = tested on: NCI/ADR-RES ovarian
HCC-2998 colon = tested on: HCC-2998 colon
CAKI-1 renal = tested on: CAKI-1 renal
SF-268 CNS = tested on: SF-268 CNS
HOP-92 NSCLC = tested on: HOP-92 NSCLC
HOP-62 NSCLC = tested on: HOP-62 NSCLC
EKVX NSCLC = tested on: EKVX NSCLC
NCI-H460 NSCLC = tested on: NCI-H460 NSCLC
M14 melanoma = tested on: M14 melanoma
OVCAR-4 ovarian = tested on: OVCAR-4 ovarian
OVCAR-5 ovarian = tested on: OVCAR-5 ovarian
HS 578T breast = tested on: HS 578T breast
RPMI-8226 leukemia = tested on: RPMI-8226 leukemia
SK-MEL-5 melanoma = tested on: SK-MEL-5 melanoma
NCI-H226 lung = tested on: NCI-H226 lung
MALME-3M melanoma = tested on: MALME-3M melanoma
SK-OV-3 ovarian = tested on: SK-OV-3 ovarian
OVCAR-3 ovarian = tested on: OVCAR-3 ovarian
COLO 205 colon = tested on: COLO 205 colon
HCT-15 colon = tested on: HCT-15 colon
MDA-MB-468 breast = tested on: MDA-MB-468 breast
HL-60(TB) leukemia = tested on: HL-60(TB) leukemia
SNB-75 CNS = tested on: SNB-75 CNS
SF-539 CNS = tested on: SF-539 CNS
UACC-62 melanoma = tested on: UACC-62 melanoma
MDA-MB-231 breast = tested on: MDA-MB-231 breast
BT-549 breast = tested on: BT-549 breast
TK-10 renal = tested on: TK-10 renal
A498 renal = tested on: A498 renal
DU-145 prostate = tested on: DU-145 prostate
SR leukemia = tested on: SR leukemia
SN12C renal = tested on: SN12C renal
SNB-19 CNS = tested on: SNB-19 CNS
U251 glioblastoma = tested on: U251 glioblastoma
UACC-257 melanoma = tested on: UACC-257 melanoma
T-47D breast = tested on: T-47D breast
HT29 colon = tested on: HT29 colon
MDA-MB-435 melanoma = tested on: MDA-MB-435 melanoma
A549 NSCLC = tested on: A549 NSCLC
NCI-H23 lung = tested on: NCI-H23 lung
OVCAR-8 ovarian = tested on: OVCAR-8 ovarian
IGROV1 ovarian = tested on: IGROV1 ovarian
MOLT-4 leukemia = tested on: MOLT-4 leukemia
HCT-116 colon = tested on: HCT-116 colon
NCI-H322M lung = tested on: NCI-H322M lung
ACHN renal = tested on: ACHN renal
K-562 leukemia = tested on: K-562 leukemia
UO-31 renal = tested on: UO-31 renal
786-0 renal = tested on: 786-0 renal
CCRF-CEM leukemia = tested on: CCRF-CEM leukemia
SW-620 colon = tested on: SW-620 colon

## O=C(CCCCCCNC(=O)c1cnc(N(c2ccccc2)c2ccccc2)nc1)NO
NCI-H522 lung
  GI50: 2.14 µM
  TGI: 8.63 µM
MCF7 breast
  GI50: 2.18 µM
  TGI: 11.8 µM
PC-3 prostate
  GI50: 2.52 µM
  TGI: 8.1 µM
SK-MEL-28 melanoma
  GI50: 3.23 µM
  TGI: 12.8 µM
KM12 colon
  GI50: 3.53 µM
  TGI: 16.1 µM
SF-295 CNS
  GI50: 4.5 µM
  TGI: 15.6 µM
LOX IMVI melanoma
  GI50: 1.97 µM
  TGI: 4.3 µM
RXF 393 renal
  GI50: 4.37 µM
  TGI: 17.4 µM
NCI/ADR-RES ovarian
  GI50: 8.89 µM
  TGI: 84.1 µM
HCC-2998 colon
  GI50: 2.7 µM
  TGI: 8.93 µM
CAKI-1 renal
  GI50: 4.36 µM
  TGI: 16.6 µM
SF-268 CNS
  GI50: 2.86 µM
  TGI: 10.1 µM
HOP-92 NSCLC
  GI50: 3.26 µM
  TGI: 13.4 µM
HOP-62 NSCLC
  GI50: 2.31 µM
  TGI: 10.3 µM
EKVX NSCLC
  GI50: 11.3 µM
  TGI: 43.8 µM
NCI-H460 NSCLC
  GI50: 2.22 µM
  TGI: 11.3 µM
M14 melanoma
  GI50: 3.7 µM
  TGI: 14.8 µM
OVCAR-4 ovarian
  GI50: 3.22 µM
  TGI: 13 µM
OVCAR-5 ovarian
  GI50: 1.84 µM
  TGI: 4.8 µM
HS 578T breast
  GI50: 1.97 µM
  TGI: 6.37 µM
RPMI-8226 leukemia
  GI50: 0.573 µM
  TGI: 1.81 µM
SK-MEL-5 melanoma
  GI50: 2.02 µM
  TGI: 4.16 µM
NCI-H226 lung
  GI50: 10.7 µM
  TGI: 26.2 µM
MALME-3M melanoma
  GI50: 1.49 µM
  TGI: 5.49 µM
SK-OV-3 ovarian
  GI50: 2.92 µM
  TGI: 14.1 µM
OVCAR-3 ovarian
  GI50: 2.01 µM
  TGI: 8.19 µM
COLO 205 colon
  GI50: 2 µM
  TGI: 3.9 µM
HCT-15 colon
  GI50: 13 µM
  TGI: 41.6 µM
MDA-MB-468 breast
  GI50: 1.5 µM
  TGI: 4.12 µM
HL-60(TB) leukemia
  GI50: 2.36 µM
  TGI: 3.82 µM
SNB-75 CNS
  GI50: 4.65 µM
  TGI: 30.3 µM
SF-539 CNS
  GI50: 5.25 µM
  TGI: 22.4 µM
UACC-62 melanoma
  GI50: 1.55 µM
  TGI: 4.13 µM
MDA-MB-231 breast
  GI50: 2.19 µM
  TGI: 6.61 µM
BT-549 breast
  GI50: 3.08 µM
  TGI: 13.3 µM
TK-10 renal
  GI50: 3.37 µM
  TGI: 12.5 µM
A498 renal
  GI50: 3.49 µM
  TGI: 16.2 µM
DU-145 prostate
  GI50: 2.18 µM
  TGI: 5.88 µM
SR leukemia
  GI50: 0.323 µM
  TGI: 1.2 µM
SN12C renal
  GI50: 2.48 µM
  TGI: 8.92 µM
SNB-19 CNS
  GI50: 3.59 µM
  TGI: 12.9 µM
U251 glioblastoma
  GI50: 1.85 µM
  TGI: 4.3 µM
UACC-257 melanoma
  GI50: 1.07 µM
  TGI: 5.12 µM
T-47D breast
  GI50: 1.73 µM
  TGI: 4.32 µM
HT29 colon
  GI50: 3.14 µM
  TGI: 13.2 µM
MDA-MB-435 melanoma
  GI50: 2.38 µM
  TGI: 5.28 µM
A549 NSCLC
  GI50: 10.1 µM
  TGI: 25 µM
NCI-H23 lung
  GI50: 4.27 µM
  TGI: 21.2 µM
OVCAR-8 ovarian
  GI50: 2.12 µM
  TGI: 13.9 µM
IGROV1 ovarian
  GI50: 2.13 µM
  TGI: 6.57 µM
MOLT-4 leukemia
  GI50: 1.34 µM
  TGI: 2.62 µM
HCT-116 colon
  GI50: 2.79 µM
  TGI: 10.5 µM
NCI-H322M lung
  GI50: 3.52 µM
  TGI: 16.9 µM
ACHN renal
  GI50: 7.93 µM
  TGI: 22.1 µM

## CN(CCO)CC[C@H](CSc1ccccc1)Nc1ccc(S(=O)(=O)NC(=O)c2ccc(N3CCC([C@@H](O)c4ccccc4-c4ccc(Cl)cc4)CC3)cc2)cc1S(=O)(=O)C(F)(F)F
PC-3 prostate
  GI50: 2.43 µM
  TGI: 5.71 µM
SK-MEL-28 melanoma
  GI50: 2.31 µM
  TGI: 4.96 µM
KM12 colon
  GI50: 2.69 µM
  TGI: 6.67 µM
SF-295 CNS
  GI50: 2.16 µM
  TGI: 5.23 µM
LOX IMVI melanoma
  GI50: 1.96 µM
  TGI: 3.62 µM
RXF 393 renal
  GI50: < 0.01 µM
  TGI: 0.53 µM
NCI/ADR-RES ovarian
  GI50: > 100 µM
  TGI: > 100 µM
HCC-2998 colon
  GI50: < 0.01 µM
  TGI: 0.199 µM
CAKI-1 renal
  GI50: 5.42 µM
  TGI: 15.9 µM
SF-268 CNS
  GI50: 4.16 µM
  TGI: 13.9 µM
HOP-92 NSCLC
  GI50: < 0.01 µM
  TGI: 0.301 µM
HOP-62 NSCLC
  GI50: 5.33 µM
  TGI: 16.7 µM
NCI-H460 NSCLC
  GI50: 13.7 µM
  TGI: 27.9 µM
M14 melanoma
  GI50: 2.82 µM
  TGI: 7.47 µM
OVCAR-5 ovarian
  GI50: 5 µM
  TGI: 21.3 µM
RPMI-8226 leukemia
  GI50: < 0.01 µM
  TGI: < 0.01 µM
SK-MEL-5 melanoma
  GI50: 1.81 µM
  TGI: 6.32 µM
NCI-H226 lung
  GI50: 1.76 µM
  TGI: 6.04 µM
OVCAR-3 ovarian
  GI50: 3.54 µM
  TGI: 12.2 µM
COLO 205 colon
  GI50: 0.807 µM
  TGI: 2.13 µM
HCT-15 colon
  GI50: 64.9 µM
  TGI: > 100 µM
HL-60(TB) leukemia
  GI50: < 0.01 µM
  TGI: < 0.01 µM
K-562 leukemia
  GI50: 3.04 µM
  TGI: 8.08 µM
SF-539 CNS
  GI50: 4.11 µM
  TGI: 14.7 µM
UACC-62 melanoma
  GI50: 2.32 µM
  TGI: 5.75 µM
BT-549 breast
  GI50: 3.45 µM
  TGI: 10.3 µM
TK-10 renal
  GI50: 3.78 µM
  TGI: 15.9 µM
A498 renal
  GI50: 1.73 µM
  TGI: 6.09 µM
DU-145 prostate
  GI50: 18.6 µM
  TGI: 55.9 µM
SN12C renal
  GI50: 4.04 µM
  TGI: 13.9 µM
SNB-19 CNS
  GI50: 4.85 µM
  TGI: 17.2 µM
U251 glioblastoma
  GI50: 2.62 µM
  TGI: 6.48 µM
UACC-257 melanoma
  GI50: 2.29 µM
  TGI: 13.6 µM
T-47D breast
  GI50: 3.88 µM
  TGI: 14.6 µM
HT29 colon
  GI50: 4.35 µM
  TGI: 15.5 µM
MDA-MB-435 melanoma
  GI50: 3.42 µM
  TGI: 9.42 µM
UO-31 renal
  GI50: > 100 µM
  TGI: > 100 µM
A549 NSCLC
  GI50: > 100 µM
  TGI: > 100 µM
786-0 renal
  GI50: 2.51 µM
  TGI: 6.68 µM
OVCAR-8 ovarian
  GI50: 11.9 µM
  TGI: 24.4 µM
IGROV1 ovarian
  GI50: 1.6 µM
  TGI: 3.25 µM
MOLT-4 leukemia
  GI50: < 0.01 µM
  TGI: < 0.01 µM
HCT-116 colon
  GI50: 2.97 µM
  TGI: 9.36 µM
CCRF-CEM leukemia
  GI50: < 0.01 µM
  TGI: 0.0137 µM
NCI-H322M lung
  GI50: 2.72 µM
  TGI: 9.6 µM
ACHN renal
  GI50: 22.6 µM
  TGI: > 100 µM
SW-620 colon
  GI50: 4.48 µM
  TGI: 16.2 µM
